Assay results: ChEMBL document CHEMBL5338799, “Synthesis and evaluation of phenylimidazole FabK inhibitors as new Anti-C. Difficile agents” (Bioorg Med Chem, 2023)
pIC50: −log10 of the molar value. Values after ≈ are worked out from the molar mass of the structure shown.

Legend:
[1] = Solubility of compound by turbidimetric assay; format: physicochemical
[2] = tested on: Clostridioides difficile; experiment: Antibacterial activity against Clostridioides difficile R20291 assessed as inhibition of bacterial growth incubated for 24 hrs by broth microdilution method; format: functional
[3] = Inhibition of Clostridioides difficile FabK expressed in Escherichia coli BL21 (DE3) using crotonyl-CoA as substrate incubated for 10 mins in presence of NADH by microplate reader assay
[4] = tested on: HCT-116; experiment: cells; format: functional, cell-based; settings: Homo sapiens, HCT-116, 48 h
Description: Cytotoxicity against human HCT-116 cells assessed as reduction in cell viability incubated for 48 hrs by resazurin dye based assay

[5] = Inhibition of Streptococcus pneumoniae FabK expressed in Escherichia coli BL21 (DE3) using crotonyl-CoA as substrate incubated for 10 mins in presence of NADH by microplate reader assay

SMILES | solubility kinetic [1] [µM] | MIC [2] [mg/L] | pIC50 [3] | IC50 [4] [mg/L] | pIC50 [5]
O=C(NCc1nc(-c2ccc(Br)cc2)c[nH]1)Nc1ncc(Sc2ncccn2)s1 | 83.9 (≈ 41 µg/mL) | 1.56 (≈ 3.19 µM) | 5.99 | > 100 | 
O=C(NCc1ncc(-c2ccccc2)[nH]1)Nc1ncc(Sc2ccccn2)s1 |  | > 50 | < 5.00 |  | 
O=C(NCc1nc(-c2ccc(Br)cc2)c[nH]1)Nc1nc2ccc(OC(F)(F)F)cc2s1 |  | 12.5 (≈ 24.4 µM) | 7.05 |  | 
O=C(NCc1nc(-c2ccc(Br)cc2)c[nH]1)Nc1nc2cccc(C(F)(F)F)c2s1 |  |  | 5.55 |  | 
COC(=O)c1ccc2nc(NC(=O)CSc3nc4ccccc4[nH]3)sc2c1 |  |  | 5.38 |  | 5.74
O=C(NCc1nc(-c2ccc(Br)cc2)c[nH]1)Nc1ncc(Sc2ccc(Cl)cn2)s1 | 59 (≈ 30.8 µg/mL) | 3.12 (≈ 5.98 µM) | 6.07 |  | 
O=C(NCc1nc(-c2ccc(Br)cc2)c[nH]1)Nc1ncc(Sc2ccc(C(F)(F)F)cn2)s1 | 18.3 (≈ 10.2 µg/mL) | 3.12 (≈ 5.62 µM) | 6.11 | > 100 | 
O=C(NCc1nc(-c2ccc(Br)cc2)c[nH]1)Nc1ncc(Sc2ccc3ccccc3n2)s1 | 74.7 (≈ 40.1 µg/mL) | > 50 | 6.12 |  | 
CCOc1ccc2nc(NC(=O)NCc3nc(-c4ccc(Br)cc4)c[nH]3)sc2c1 | 79 (≈ 37.3 µg/mL) | 12.5 (≈ 26.5 µM) | 6.77 |  | 
O=C(NCc1nc(-c2ccc(Br)cc2)c[nH]1)Nc1nc2cc(C(F)(F)F)ccc2s1 |  | 3.12 (≈ 6.29 µM) | < 5.00 |  | 
O=C(NCc1nc(-c2ccc(Br)cc2)c[nH]1)Nc1ncc(Sc2ncccc2C(F)(F)F)s1 | 52 (≈ 28.9 µg/mL) | 1.56 (≈ 2.81 µM) | 6.62 | > 100 | 
O=C(NCc1nc(-c2ccccc2)c[nH]1)Nc1ncc(Sc2ccccc2)s1 |  |  |  |  | 7.43
O=C(NCc1nc(-c2ccc(Br)cc2)c[nH]1)Nc1nc2ccccc2s1 | 64.8 (≈ 27.8 µg/mL) | > 50 | 5.73 |  | 
O=C(NCc1nc(-c2ccc(Br)cc2)c[nH]1)Nc1ncc(Sc2ccccc2)s1 |  | 1.56 (≈ 3.21 µM) | 6.05 |  | 
O=C(NCc1nc(-c2ccc(Br)cc2)c[nH]1)Nc1nc2c(F)cc(F)cc2s1 | 125 (≈ 58 µg/mL) | 12.5 (≈ 26.9 µM) | 5.34 |  | 
O=C(NCc1nc2ccccc2c(=O)[nH]1)Nc1ncc(Sc2ccccn2)s1 |  | > 50 | < 5.00 |  | 
CS(=O)(=O)c1ccc2nc(NC(=O)NCc3nc(-c4ccc(Br)cc4)c[nH]3)sc2c1 | 44.5 (≈ 22.5 µg/mL) | > 100 | 6.35 |  | 
O=C(NCc1nc(-c2ccc(Br)cc2)c[nH]1)Nc1nc2ccc(F)cc2s1 | 61.3 (≈ 27.4 µg/mL) |  | 6.64 |  | 
O=C(NCc1nc(-c2ccc(Br)cc2)c[nH]1)Nc1nc2ccc(Cl)cc2s1 | 76.9 (≈ 35.6 µg/mL) | 6.25 (≈ 13.5 µM) | 6.96 | > 100 | 
O=C(NCc1nc2ccccc2[nH]1)Nc1ncc(Sc2ccccn2)s1 |  | > 50 | < 5.00 |  | 
O=C(NCc1ncc(-c2ccc(Br)cc2)[nH]1)Nc1ncc(Sc2ccccn2)s1 | 80.1 (≈ 39 µg/mL) | 1.56 (≈ 3.2 µM) | 5.91 | > 100 | 
O=C(NCc1nc(-c2ccc(Br)cc2)c[nH]1)Nc1nc2ccc(Br)cc2s1 | 31.3 (≈ 15.9 µg/mL) | 50 (≈ 98.6 µM) | 6.47 |  | 
O=C(NCc1nc(-c2ccc(Br)cc2)c[nH]1)Nc1nc2c(C(F)(F)F)cccc2s1 |  | 1.56 (≈ 3.14 µM) | < 5.00 | > 100 | 
O=C(NCc1nc(-c2ccc(Br)cc2)c[nH]1)Nc1ncc(Sc2ccc(Br)cc2)s1 | 63.6 (≈ 36 µg/mL) | 25 (≈ 44.2 µM) | 6.28 |  | 
O=C(NCc1nc(-c2ccc(Br)cc2)c[nH]1)Nc1ncc(Sc2nc3ccccc3s2)s1 | 50 (≈ 27.2 µg/mL) | > 50 | 6.38 |  | 
